From US20060121117A1, “Anti-angiogenic compositions and methods of use” (ANGIOTECH PHARMACEUTICALS, INC., priority 1993, published 2006)

Tests used:
synoviocytes = assay: 3H-thymidine incorporation into synoviocytes; type: cell-based; conditions: 6 or 24 hours incubation
Experimental: At these times, 1×10^−6 cpm of ^3H-thymidine was added to the cell culture and incubated for 2 hours at 37° C. The cells were placed through a cell harvester, washed through a filter, the filters were cut, and the amount of radiation contained in the filter sections determined. Once the amount of thymidine incorporated into the cells was ascertained, it was used to determine the rate of cell proliferation. This experiment was repeated three times and the data collated together.

[1] = Release from 50:50 ELVAX:poly-l-lactic acid microspheres; type: physicochemical; conditions: 18 hours of tumbling at 37° C.
Experimental: Microspheres are then prepared in a dissolution machine (Six-spindle dissolution tester, VanderKanp, Van Kell Industries Inc., U.S.A.) in triplicate at 200 rpm, 42° C., for 3 hours. Microspheres so prepared are washed twice in water and sized on the microscope.

[2] = test system: chick chorioallantoic membrane (CAM); assay: Chick chorioallantoic membrane (CAM) assay, agent in methylcellulose disks; conditions: for Embryos Evaluated positive/total: 48 hours
collagenase mRNA = assay: IL-1 induced collagenase expression in chondrocytes (Northern blot); type: cell-based, bovine; conditions: 10^−6 M, 2 hours prior to IL-1 (20 ng/ml), further 16 hours
Experimental: The cells were then incubated for a further 16 hours. Total RNA from bovine articular chondrocytes was isolated by the acidified guanidine isothiocyanate method and the collagenase mRNA determined by Northern blot analysis. The RNA samples were prepared as described above using ^32P-labeled rat collagenase cDNA.

neutrophils [3] = assay: Neutrophil degranulation assay (myeloperoxidase, lysozyme)
normal chondrocytes = assay: Chondrocyte viability (Trypan blue counting); type: cell-based; conditions: up to 10^−5 M, 72 hours
c-fos mRNA = assay: c-fos expression in chondrocytes (Northern blot); type: cell-based, bovine; conditions: 10^−6 M, 10^−7 M and 10^−8 M for 2 hours, then TNF 30 ng/ml for 1 hour
Experimental: Total RNA from bovine articular chondrocytes was isolated by the acidified guanidine isothiocyanate method and the levels of c-fos mRNA determined by Northern blot analysis. Denatured RNA samples (12 μg) were analyzed by gel electrophoresis in a denaturing 1% agarose gel, transferred to a nylon membrane (Bio-Rad), cross-linked with an ultraviolet cross-linker (Stratagene UV stratalinker 1800), and hybridized with ^32P-labeled rat c-fos DNA. mRNA for tubulin and total RNA were used as controls. To determine tubulin mRNA, the blots described above were subsequently stripped of DNA and re-probed with ^32P-labeled rat P-tubulin cDNA. This experimented was conducted three times and the data collated.

synovial fibroblasts = assay: Synoviocyte proliferation (Trypan blue counting); conditions: 24 hours
neutrophils [4] = assay: Neutrophil superoxide anion generation; type: cell-based, human; conditions: paclitaxel at 28 μM
Experimental: (§1) Opsonization of crystals or zymosan was done with 50% heparinized plasma at a concentration of 75 mg of CPPD or 12 mg of zymosan per ml of 50% plasma. Crystals or zymosan were incubated with plasma for 30 min. at 37° C. and then washed in excess HBSS.
Superoxide anion concentrations were measured using the superoxide dismutase inhibitable reduction of cytochrome c assay. Briefly, 25 mg of crystals or 0.5 mg of zymosan was placed in a 1.5 ml capped Eppendorf tube and warmed to 37° C. 0.5 ml of cells at 370 C were added together with ferricytochrome c (final concentration 1.2 mg/ml) and the cells were activated by shaking the capped tubes. […] Control tubes were set up under the same conditions with the inclusion of superoxide dismutase at 600 units per ml.

neutrophils [5] = assay: Neutrophil chemiluminescence assay; type: cell-based; conditions: Homo sapiens, paclitaxel at 28 μM, read-out: inhibition of the peak chemiluminescence response
Experimental: as §1
All chemiluminescence studies were performed at a cell concentration of 5,000,000 cells/ml in HBSS with CPPD (50 mg/ml). In all experiments 0.5 ml of cells was added to 25 mg of CPPD or 0.5 mg of zymosan in 1.5 ml capped Eppendorf tubes. 10 μl of luminol dissolved in 25% DMSO in HBSS was added to a final concentration of 1 μM and the samples were mixed to initiate neutrophil activation by the crystals or zymosan. Chemiluminescence was monitored using an LKB Luminometer (Model 1250.) at 37° C. with shaking immediately prior to measurements to resuspend the crystals or zymosan. Control tubes contained cells, drug and luminol (crystals absent).

neutrophils [6] = assay: Neutrophil viability (LDH release); conditions: paclitaxel at 46 μM for one hour at 37° C.
Experimental: Neutrophils were prepared from freshly collected human citrated whole blood. Briefly, 400 ml of blood were mixed with 80 ml of 4% dextran T500 (Phamacia LKB, Biotechnology AB Uppsala, Sweden) in HBSS and allowed to settle for 1 h. Plasma was collected continuously and 5 ml applied to 5 ml of Ficoll Paque (Pharmacia) in 15 ml polypropylene tubes (Corning, N.Y.). Following centrifugation at 500×g for 30 min, the neutrophil pellets were washed free of erythrocytes by 20 s of hypotonic shock. Neutrophils were resuspended in HBSS, kept on ice and used for experiments within 3 h. Neutrophil viability and purity was always greater than 90%.
Cells were incubated for 20 minutes at 33° C. then for 10 minutes at 37° C. before addition to crystals or zymosan.
Control tubes containing cells with drug (crystals absent) from degranulation experiments were also assayed for LDH.

[7] = Vanadyl sulfate release from PCL paste; type: physicochemical
Experimental: Drug release was determined essentially as described above in Example 33, except that a 65 mg pellet of a 10% w/w VOSO4:PCL was suspended in 10 ml of water and the supernatant analyzed for released Vanadyl Sulphate using UV/Vis absorbance spectroscopy of the peak in the 200 to 300 nm range.

[8] = MTX release from PCL paste; type: physicochemical; conditions: high MePEG concentrations (20% MePEG in PCL)
Experimental: A known weight of a polymer (typically a 2.5 mg pellet) is added to a 15 ml test tube containing 14 ml of a buffer containing 10 mm Na2HPO4—NaH2PO4, 0.145 m NaCl and 0.4 g/l bovine serum albumin. The tubes are capped and tumbled at 37° C. At specific times all the 14 ml of the liquid buffer are removed and replaced with fresh liquid buffer.
For MTX the collected buffer is applied directly to the HPLC column with no need for extraction in methylene chloride. MTX is analyzed at 302 nm. For Vanadium containing compounds the liquid buffer is analyzed directly using a UV/VIS spectrometer in the 200 to 300 nm range.
Methotrexate (“MTX”; Sigma Chemical Co.) is ground in a pestle and mortar to reduce the particle size to below 5 microns. It is then mixed as a dry powder with polycaprolactone (molecular wt 18000 Birmingham Polymers, Alabama USA). The mixture is heated to 65° C. for 5 minutes and the molten polymer/methotrexate mixture is stirred into a smooth paste for 5 minutes. The molten paste is then taken into a 1 mL syringe, and extruded as desired.

SMILES: CC(=O)O[C@H]1C(=O)[C@@]2(C)[C@H]([C@H](OC(=O)c3ccccc3)[C@]3(O)C[C@H](OC(=O)[C@H](O)[C@@H](NC(=O)c4ccccc4)c4ccccc4)C(C)=C1C3(C)C)[C@]1(OC(C)=O)CO[C@@H]1C[C@@H]2O [Paclitaxel]
- lowest concentration inhibiting incorporation of 3H-thymidine (synoviocytes): 10^−8 M
- % of the total drug released from the microspheres (fluorescence assay) [1]: 6%
- % of the total drug released from the microspheres (uv/vis assay) [1]: 10.3%
- Embryos Evaluated positive/total ([2]; 0.25 μg paclitaxel in methylcellulose disk): 2/11
- Embryos Evaluated positive/total ([2]; 0.5 μg paclitaxel in methylcellulose disk): 6/11
- Embryos Evaluated positive/total ([2]; 1 μg paclitaxel in methylcellulose disk): 6/15
- Embryos Evaluated positive/total ([2]; 5 μg paclitaxel in methylcellulose disk): 20/27
- Embryos Evaluated positive/total ([2]; 10 μg paclitaxel in methylcellulose disk): 16/21
- Embryos Evaluated positive/total ([2]; 30 μg paclitaxel in methylcellulose disk): 31/31
- time for which avascular zones did not revascularize after application ([2]; in one study): at least 7 days
- earliest time at which inhibition of angiogenesis occurs after application ([2]; observed over the 48 hour duration): 9 h
- avascular zone diameter ([2]; paclitaxel in methylcellulose disk, 48 hour exposure): 6 mm
- avascular gradient scale (maximal avascular zone) ([2]; within 48 hours, depending on concentration): 3
- effect on IL-1 induced collagenase expression (collagenase mRNA): completely inhibited
- inhibition at 28 µM (neutrophils [3]; Homo sapiens, Neutrophil, […], read-out: inhibition of MPO release): 50%
- effect on lysozyme release (neutrophils [3]; paclitaxel at 28 μM, plasma opsonized CPPD): reduced lysozyme release
- effect on myeloperoxidase release (neutrophils [3]; plasma opsonized CPPD, paclitaxel 28 μM (FIG. 32A)): significantly inhibited
- effect on viability of normal chondrocytes (normal chondrocytes): does not affect the viability
- effect on c-fos expression (c-fos mRNA): does not alter c-fos expression
- toxicity to synovial fibroblasts in vitro (synovial fibroblasts; 10^−6 M and 10^−5 M): toxic
- lowest concentration inhibiting proliferation of the synoviocytes (synovial fibroblasts): 10^−7 M
- effect on superoxide anion production (neutrophils [4]; opsonised zymosan): less dramatic than the inhibition of CPPD activation but was significant at all times
- effect on superoxide anion production (neutrophils [4]; plasma opsonised CPPD crystals): decrease in the amount of superoxide generated at all times
- inhibition at 28 µM (neutrophils [5]; plasma opsonised zymosan): 45%
- inhibition at 28 µM (neutrophils [5]; plasma opsonized CPPD): 52%
- LDH release (neutrophils [6]): less than 5 % of total

SMILES: O=S(=O)([O-])[O-].[O]=[V+2] [VOSO4, Vanadyl Sulfate]
- amount of VOSO4 released ([7]; after 2 days, 65 mg pellet of 10% w/w VOSO4:PCL in 10 ml water): 3 mg
- amount of VOSO4 released ([7]; by day 6, 65 mg pellet of 10% w/w VOSO4:PCL in 10 ml water): 5 mg
- amount of VOSO4 released ([7]; in 6 hours, 65 mg pellet of 10% w/w VOSO4:PCL in 10 ml water): 1 mg

SMILES: CN(Cc1cnc2nc(N)nc(N)c2n1)c1ccc(C(=O)N[C@@H](CCC(=O)O)C(=O)O)cc1 [MTX, Methotrexate]
- amount of MTX released from the polymer [8]: substantial amounts
